# Experimental data published in patent US20160304959A1, “COMPOSITIONS AND METHODS FOR TREATING DIABETIC NEPHROPATHY” (Rush University Medical Center, priority 2013, published 2016).
# What was measured:
# ErbB4 = ErbB4 (Homo sapiens, UniProt Q15303); settings: cited from earlier work; for Affinity and selectivity for ErbB4 versus EGFR: pan-ErbB inhibitors; for Inhibition of ErbB4 (affinity): ref. 77 for JNJ
# podocytes = assay: Podocytes treated with TGFβ and co-treated with ErbB4 inhibitor (qRT-PCR, immunofluorescence); assay type: cell-based, mouse; settings: podocytes treated with TGFb plus inhibitor, 2 h
# Description: FIG. 5A is a bar graph showing qRT-PCR based analysis of levels of various RNAs in podocytes cultured in normal glucose (5 mM) v/s treatment with HG (30 mM) for 2 h or 24 h (Notch-1). FIG. 5B is a bar graph showing qRT-PCR based analysis of levels of various RNAs in podocytes cultured in normal media or treated with TGFb in the absence or presence of ErbB4 inhibitor (JNJ) for 2 h. FIG. 5C provides representative immunofluorescence images showing podocytes cultured in normal media or treated with TGFb in the absence or presence of ErbB4 inhibitor (JNJ) for 2 h and stained for paxillin, synpo or ErbB4.
# [1] = tested on: WT and miR-146a KO DN mice; assay: TEM of kidney sections for podocyte foot process effacement after STZ; assay type: in vivo, mouse
# Description: We also analyzed the kidney sections using transmission electron microscopy (TEM) to determine if erlotinib treatment provided protection of podocytes from foot process effacement. TEM was performed according to the standard protocols (Sever, S. et al. J Clin. Invest. 117, 2095-2104 (2007)).
# [2] = tested on: DN prone miR-146a KO animals; assay: STZ-induced diabetic nephropathy in miR-146a KO animals, albuminuria; assay type: in vivo, mouse; settings: miR-146a KO + STZ mice, 70 mg/kg I.P. daily from 4 weeks post-STZ
# Description: We investigated the role of miR-146 in diabetic nephropathy (DN) using the miR-146a KO animals and a DN mouse model. Streptozotocin (STZ) treatment (125 mg/kg, two doses 3 days apart) induced similar levels of hyperglycemia in both WT and miR146a KO animals (FIG. 7).
# To determine if inhibiting ErbB4 using ErbB4 erlotinib would be beneficial and protect animals from DN, we administered Erlotinib (70 mg/kg in saline/Kolliphor, Tween, I.P., daily) in DN prone miR-146a KO animals starting at 4 weeks post-STZ.
# Sequence of ErbB4 (Q15303 26-1308): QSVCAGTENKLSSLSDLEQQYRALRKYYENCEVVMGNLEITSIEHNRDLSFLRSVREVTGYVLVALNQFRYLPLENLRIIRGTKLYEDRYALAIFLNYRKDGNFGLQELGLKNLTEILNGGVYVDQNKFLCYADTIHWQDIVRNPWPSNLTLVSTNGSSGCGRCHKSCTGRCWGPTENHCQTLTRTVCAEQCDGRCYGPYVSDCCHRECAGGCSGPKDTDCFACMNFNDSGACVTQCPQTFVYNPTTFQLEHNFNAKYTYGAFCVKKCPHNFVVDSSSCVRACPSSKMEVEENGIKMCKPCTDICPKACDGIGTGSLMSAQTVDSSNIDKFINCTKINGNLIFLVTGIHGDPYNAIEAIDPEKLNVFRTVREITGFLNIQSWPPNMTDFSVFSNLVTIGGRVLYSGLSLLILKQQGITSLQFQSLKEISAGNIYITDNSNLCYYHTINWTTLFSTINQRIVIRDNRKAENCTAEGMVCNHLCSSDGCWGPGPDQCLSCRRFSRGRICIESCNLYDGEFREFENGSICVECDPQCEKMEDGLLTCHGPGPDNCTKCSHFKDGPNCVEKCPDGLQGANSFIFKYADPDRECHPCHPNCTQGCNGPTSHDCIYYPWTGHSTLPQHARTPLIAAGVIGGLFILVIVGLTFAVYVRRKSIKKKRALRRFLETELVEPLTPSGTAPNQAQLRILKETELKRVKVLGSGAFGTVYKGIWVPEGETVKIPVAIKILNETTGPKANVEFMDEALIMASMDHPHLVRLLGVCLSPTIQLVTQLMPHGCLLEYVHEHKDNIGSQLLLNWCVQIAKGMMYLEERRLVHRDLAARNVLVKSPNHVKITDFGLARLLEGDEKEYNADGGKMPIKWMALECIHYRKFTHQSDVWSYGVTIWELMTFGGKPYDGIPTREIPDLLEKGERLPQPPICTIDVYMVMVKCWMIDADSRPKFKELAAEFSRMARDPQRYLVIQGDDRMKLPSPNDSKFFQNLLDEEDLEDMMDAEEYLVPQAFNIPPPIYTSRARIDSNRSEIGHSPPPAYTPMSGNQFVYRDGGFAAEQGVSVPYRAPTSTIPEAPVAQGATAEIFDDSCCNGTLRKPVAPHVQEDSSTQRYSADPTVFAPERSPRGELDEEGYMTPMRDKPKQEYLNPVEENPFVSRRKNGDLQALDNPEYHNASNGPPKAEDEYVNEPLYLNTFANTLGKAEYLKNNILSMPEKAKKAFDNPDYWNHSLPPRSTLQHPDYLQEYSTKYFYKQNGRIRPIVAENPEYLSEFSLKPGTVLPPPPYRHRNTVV
SMILES,Affinity and selectivity for ErbB4 versus EGFR (ErbB4),Inhibition of ErbB4 (affinity) (ErbB4),Reversal of deleterious expression changes induced by TGFβ (mRNA and protein level) (podocytes),Podocyte foot process effacement (TEM) ([1]; WT mice after STZ),Podocyte foot process effacement (TEM) ([1]; miR-146a KO DN mice),Proteinuria (albuminuria) [2]
Cl.Nc1ncnc(Nc2ccc(OCc3ccccc3)c(Cl)c2)c1/C=N/OCCN1CCOCC1 [JNJ28871063],high affinity and selectivity for ErbB4,nanomolar affinity,reversed the deleterious expression changes induced by TGFβ,,,
C#Cc1cccc(Nc2ncnc3cc(OCCOC)c(OCCOC)cc23)c1 [Erlotinib],high affinity and selectivity for ErbB4,,,significantly reduced podocyte foot process effacement,significantly reduced podocyte foot process effacement,significantly reduced proteinuria (albuminuria)
CS(=O)(=O)CCNCc1ccc(-c2ccc3ncnc(Nc4ccc(OCc5cccc(F)c5)c(Cl)c4)c3c2)o1 [Lapatinib],much more effective against EGFR v/s ErbB4,only weakly effective on ErbB4,less effective,,,
CNc1cc2c(Nc3cccc(Br)c3)ncnc2cn1 [PD158780],high affinity and selectivity for ErbB4,,,,,
